# Test results reported in article PMC4527730, “A Pan-GTPase Inhibitor as a Molecular Probe” (PLoS ONE, 2015).
# Where “and” joins values, the source holds several entries; their conditions need not be identical. Equal values may be shown once. Read-outs that look alike come from different tables or passages of the source.
# Legend:
# Rab7, Cdc42 and Ras = assay: Association and dissociation time course of BODIPY-FL GTP (real-time flow cytometry); format: binding
# Procedure: GTPases were bound to glutathione-coated microsphere beads overnight and unbound GTPases were removed by washing. The association and dissociation of BODIPY^- FL GTP was analyzed with the Accuri C6 flow cytometer in real-time. The initial 30 s set the baseline fluorescence. […] When the fluorescence plateau was reached, GTP at 50 μM was added to induce BODIPY^- FL GTP dissociation. […] All the concentrations given are the final concentrations.
# [1] = test system: integrin VLA-4 on U937 FPRΔST cells; assay: Integrin activation assay (LDV-FITC binding); format: cell-based; conditions: LDV-FITC 4 nM, fMLFF 100 nM
# Procedure: The procedure followed the protocols described previously. U937 FPRΔST cells (0.4~0.8 x 10^6 cells/mL) were continuously stirred with a magnetic stir bar at 500 rpm in a test tube. The fluorescence was recorded on a FACScan flow cytometer. The baseline fluorescence of the cells was established for 30 s. Then LDV-FITC at 4 nM was added. After the fluorescence stabilized at ~120 s, the chemotactic ligand fMLFF at 100 nM was added for stimulation. […] All the concentrations given were the final concentrations. The percent inhibition was calculated according to Equation 1 (Supporting Information).
# [2] = test system: phospho-Erk 1/2 in H358 cells; assay: Western blotting of Erk1/2 phosphorylation downstream of Ras signaling; format: cell-based; conditions: 10 μM, 1 h; complete medium or FBS stimulated after starvation
# Procedure: H358 lung cancer cells were seeded at 10^6 cells/well in 6–well plates. […] Then cells were stimulated with 10% FBS for 5 min and lysed in 150 μl RIPA buffer. Cell lysates were processed for SDS-PAGE, transferred to PVDF membranes and probed with a monoclonal antibody directed against phospho-Erk 1/2 (from Cell Signaling) and a monoclonal antibody directed against Erk 1/2 (from Cell Signaling) followed by an HRP labeled ECL anti-mouse IgG (from GE Healthcare).
# [3] = Solubility in PBS and assay media; format: physicochemical
# Procedure: page 7: conclusion, the available data support the idea that compound CID1067700 has non-classical competitive character. […] Solubility was measured in phosphate buffered saline (PBS) at room temperature (23 °C). PBS by definition is 137 mM NaCl, 2.7 mM KCl, 10 mM sodium phosphate dibasic, 2 mM potassium phosphate [monobasic and a pH of 7.4. Detection was based on UV absorbance. […] Solubility was also assessed in the each of the four media used in the individual assays. […] Table 1S. […] Stability, depicted as closed circles in the graph, was assessed at room temperature (23 °C) in PBS (no antioxidants or other protectants and DMSO concentration below 0.1%). Stability data is depicted in Fig. S8 showing the loss of compound with time over a 48 h period with a minimum of 6 time points and providing the percent remaining compound at end of the 48 h period. Under these conditions, 77% of 1 remains after 48 hours. The degradation has not been further characterized.
# [4] = test system: GTPases (H-Ras, H-Ras G12V, Cdc42, Cdc42 Q61L, Rac1, Rac1 Q61L, RhoA, Rab7); assay: Multiplex dose-response assay, statements across the GTPase panel
# Procedure: Briefly, individual GST-GTPases were separately attached to glutathione microsphere beads that were labeled with varying intensity of red fluorescent dye, and subsequently combined. The buffer contains 30 mM HEPES (pH 7.2), 150 mM KCl, 20 mM NaCl, 0.1% BSA, 1 mM DTT, 1 mM EDTA and 0.1% NP-40. For Rho A and Rac1, 1 mM EDTA was replaced with 1 mM MgCl2 to stabilize the protein. […] To study whether the compounds are slow binders, BODIPY^- FL GTP was added either immediately or 2 h after compound addition. […] The curves were fitted to the sigmoidal dose-response equation using GraphPad Prism. Percent response was calculated as the ratio of (sample MCF–negative control MCF) / (positive control MCF–negative control MCF).
# H-Ras = H-Ras (Homo sapiens, UniProt P01112); assay: Multiplex bead-based flow cytometry dose-response of fluorescent guanine nucleotide binding
# Chain of H-Ras (P01112 whole entry): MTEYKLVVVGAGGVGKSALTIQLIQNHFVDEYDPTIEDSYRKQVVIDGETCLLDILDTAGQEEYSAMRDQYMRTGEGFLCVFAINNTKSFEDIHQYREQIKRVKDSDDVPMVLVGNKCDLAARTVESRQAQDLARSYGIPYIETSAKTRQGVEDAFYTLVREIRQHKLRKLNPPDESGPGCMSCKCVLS
# Procedure: (§1) Briefly, individual GST-GTPases were separately attached to glutathione microsphere beads that were labeled with varying intensity of red fluorescent dye, and subsequently combined. The buffer contains 30 mM HEPES (pH 7.2), 150 mM KCl, 20 mM NaCl, 0.1% BSA, 1 mM DTT, 1 mM EDTA and 0.1% NP-40. […] To study whether the compounds are slow binders, BODIPY^- FL GTP was added either immediately or 2 h after compound addition. […] The curves were fitted to the sigmoidal dose-response equation using GraphPad Prism. Percent response was calculated as the ratio of (sample MCF–negative control MCF) / (positive control MCF–negative control MCF).
# H-Ras G12V = H-Ras G12V (Homo sapiens, UniProt P01112, G12V); assay: as above; conditions: EC50 H-Ras G12V
# Chain of H-Ras G12V (P01112 whole entry G12V): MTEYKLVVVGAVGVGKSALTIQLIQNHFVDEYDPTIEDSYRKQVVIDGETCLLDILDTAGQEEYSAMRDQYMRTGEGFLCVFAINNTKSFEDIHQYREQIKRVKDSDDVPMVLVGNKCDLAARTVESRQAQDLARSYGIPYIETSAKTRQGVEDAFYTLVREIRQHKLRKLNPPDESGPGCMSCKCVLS
# Procedure: as §1
# Cdc42 = Cdc42 (Homo sapiens, UniProt P60953); assay: as above
# Chain of Cdc42 (P60953 whole entry): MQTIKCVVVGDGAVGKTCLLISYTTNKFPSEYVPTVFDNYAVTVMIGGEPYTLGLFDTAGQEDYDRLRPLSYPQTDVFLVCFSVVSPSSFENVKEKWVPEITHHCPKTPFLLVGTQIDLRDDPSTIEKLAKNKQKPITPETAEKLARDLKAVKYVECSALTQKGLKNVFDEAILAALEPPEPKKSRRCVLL
# Rac1 Q61L = Rac1 Q61L (Homo sapiens, UniProt P63000, Q61L); assay: as above; conditions: EC50 Rac1 Q61L
# [5] = BODIPY-FL GTP binding, 2 h at 4°C
# [6] = concentration dependence on BODIPY-FL GDP
compound,measurement,setting,value
CC1(C)Cc2c(sc(NC(=S)NC(=O)c3ccccc3)c2C(=O)O)CO1 [Compound 1],covalent bond formation with GTPases / reversibility,"Rab7, Cdc42 and Ras; 50 μM overnight, extensive washing",did not form a covalent bond
same,dissociation of pre-bound BODIPY-FL GTP,"Rab7, Cdc42 and Ras; compound 50 μM added at plateau",able to induce dissociation
same,binding of BODIPY-FL GTP in the presence of compound,"Rab7, Cdc42 and Ras; compound 50 μM, BODIPY-FL GTP 100 nM",decreased
same,integrin VLA-4 activation (LDV-FITC binding after fMLFF),[1],caused diminished binding
same,phosphorylation level of Erk 1/2,[2],decreased
same,solubility,"[3]; Dose Response-buffer (HEPES buffer), 23 °C, aqueous with cosolvent or surfactant or cyclodextrin, 30mM HEPES, pH 7.5, 100mM KCl, 20mM NaCl, 0.01% (v/v) NP-40, read-out: Solubility, Dose Response-buffer",> 68.1 µg/mL and > 174 µM
same,solubility,"[3]; EGFR degradation assay medium, DMEM/F-12, read-out: Solubility, EGFR degradation assay medium",> 116 µg/mL and > 297 µM
same,solubility,"[3]; LDV-FITC assay buffer, RPMI 1640 + 10% HI-FBS, read-out: Solubility, LDV-FITC assay buffer",> 116 µg/mL and > 297 µM
same,solubility,"[3]; phosphate buffered saline (PBS), PBS pH 7.4, 23 °C, read-out: PBS solubility",> 116 µg/mL and > 297 µM
same,inhibitory activity on BODIPY-FL GTP binding across all GTPases tested (in words),[4]; SAR versus compound 1,inhibited BODIPY^- FL GTP binding to all the GTPases tested in a dose-dependent manner
same,slow binding behaviour,[4]; two-hour incubation or no incubation before BODIPY-FL GTP,not a slow binder
same,EC50,"H-Ras; EC50 H-Ras, BODIPY-FL GTP binding, 2 h at 4°C",160 ± 160 nM
same,EC50,"H-Ras; EC50 H-Ras, concentration dependence on BODIPY-FL GDP",240 nM
same,EC50,"H-Ras; EC50 Ras, with 2 h incubation before BODIPY-FL GTP",100 ± 3.5 nM
same,EC50,"H-Ras; EC50 Ras, without incubation before BODIPY-FL GTP",130 ± 2.6 nM
same,EC50,H-Ras G12V; [5],52 ± 44 nM
same,EC50,H-Ras G12V; [6],260 nM
same,EC50,"Cdc42; EC50 Cdc42, BODIPY-FL GTP binding, 2 h at 4°C",1090 ± 1620 nM
same,EC50,"Cdc42; EC50 Cdc42, concentration dependence on BODIPY-FL GDP",420 nM
same,EC50,"Cdc42; EC50 Cdc42_1, with 2 h incubation before BODIPY-FL GTP, Cdc42 purified in house",2060 ± 38 nM
same,EC50,"Cdc42; EC50 Cdc42_1, without incubation before BODIPY-FL GTP, Cdc42 purified in house",2230 ± 1470 nM
same,EC50,"Cdc42; EC50 Cdc42_2, with 2 h incubation before BODIPY-FL GTP, Cdc42 from Cytoskeleton",3710 ± 39 nM
same,EC50,"Cdc42; EC50 Cdc42_2, without incubation before BODIPY-FL GTP, Cdc42 from Cytoskeleton",4460 ± 2630 nM
same,EC50,Rac1 Q61L; [5],75 ± 59 nM
same,EC50,Rac1 Q61L; [6],120 nM
